Tested on: L-calcium channel benzothiazepine binding site
Assay: Binding at the L-calcium channel benzothiazepine binding site (diltiazem binding)
Conditions: 10 μM test compound; [3H]-cis-(+)-diltiazem 5 nM; rat cerebral cortex membranes; 20 minutes at 25° C.
Description: Biological Data: Investigations on Binding at the L-Calcium Channel Benzothiazepine Binding Site (Diltiazem Binding)
The biological membrane material was isolated from rat cerebral cortex. [^3H]-cis-(+)-diltiazem (5 nM in the batch) was used as ligand. Incubation was for 20 minutes at 25° C. The radioactivity measured in the presence of (±)-diltiazem (10^−6 M in the batch) is defined as the non-specific binding. The non-bound fraction of the radioactive ligand was separated after completion of the incubation, using a filtration process through Whatman glass fiber GF/B membranes. After being washed, the membranes were then measured in a β-counter. The method was developed based on the publication by Schoemaker and Langer (H. Schoemaker and S. Z. Langer (1985) Eur. J. Pharmacol. 111, 273-277).

First: COc1cccc(C2(O)CCCN(C(=O)c3ccc(C)cc3)C2)c1 (centres unmarked) [Example 9, [3-hydroxy-3-(3-methoxyphenyl)-piperidine-1-yl]-p-tolyl-methanone]
Second: COc1cccc(C2(O)CCCN(Cc3ccc(C)cc3)C2)c1.Cl (centres unmarked) [Example 39, 3-(3-methoxyphenyl)-1-(4-methylbenzyl)-piperidine-3-ol hydrochloride]
The “Diltiazem binding [10 μM] % inhibition” value of the first is lower: 55.8% for the first, 76% for the second.

Compared with `COc1cccc(C2(O)CCCN(Cc3cccc(F)c3)C2)c1.Cl` (centres unmarked) [Example 32, 1-(3-fluorobenzyl)-3-(3-methoxyphenyl)-piperidine-3-ol hydrochloride], `COc1cccc(C2(O)CCCN(Cc3cccc(Br)c3)C2)c1.Cl` (centres unmarked) [Example 49, 1-(3-bromobenzyl)-3-(3-methoxyphenyl)-piperidine-3-ol hydrochloride] is higher in “Diltiazem binding [10 μM] % inhibition” value: 83.7% for the first, 90.4% for the second.

First: COc1cccc(C2(O)CCCN(Cc3ccc(F)cc3)C2)c1.Cl (centres unmarked) [Example 33, 1-(4-fluorobenzyl)-3-(3-methoxyphenyl)-piperidine-3-ol hydrochloride]
Second: COc1cccc(C2(O)CCCN(Cc3ccc(Br)cc3)C2)c1.Cl (centres unmarked) [Example 34, 1-(4-bromobenzyl)-3-(3-methoxyphenyl)-piperidine-3-ol hydrochloride]
The “Diltiazem binding [10 μM] % inhibition” value of the first is higher: 95% for the first, 78.7% for the second.

Going from `COc1cccc(C2(O)CCCN(Cc3cc(F)cc(F)c3)C2)c1.Cl` (centres unmarked) [Example 36, 1-(3,5-difluorobenzyl)-3-(3-methoxyphenyl)-piperidine-3-ol hydrochloride] to `COc1cccc(C2(O)CCCN(Cc3ccc(Cl)c(Cl)c3)C2)c1.Cl` (centres unmarked) [Example 37, 1-(3,4-dichlorbenzyl)-3-(3-methoxyphenyl)-piperidine-3-ol hydrochloride], the “Diltiazem binding [10 μM] % inhibition” value rises from 57.4% to 80.7%.

Going from `COc1cccc(C2(O)CCCN(Cc3cccc(C(F)(F)F)c3)C2)c1.Cl` (centres unmarked) [Example 40, 3-(3-methoxyphenyl)-1-(3-trifluoromethylbenzyl)-piperidine-3-ol hydrochloride] to `COc1cccc(C2(O)CCCN(Cc3cc(C(F)(F)F)cc(C(F)(F)F)c3)C2)c1.Cl` (centres unmarked) [Example 52, 1-(3,5-bis-trifluoromethyl-benzyl)-3-(3-methoxyphenyl)-piperidine-3-ol hydrochloride], the “Diltiazem binding [10 μM] % inhibition” value falls from 85.9% to 75.9%.

First: COc1cccc(C2(O)CCCN(CCOc3ccccc3)C2)c1.Cl (centres unmarked) [Example 41, 3-(3-methoxyphenyl)-1-(2-phenoxy-ethyl)-piperidine-3-ol hydrochloride]
Second: COc1cccc(C2(O)CCCN(CCc3ccccc3)C2)c1.Cl (centres unmarked) [Example 47, 3-(3-methoxyphenyl)-1-phenethyl-piperidine-3-ol hydrochloride]
The “Diltiazem binding [10 μM] % inhibition” value of the first is higher: 92.7% for the first, 79.4% for the second.

Going from `COc1cccc(C2(O)CCCN(Cc3ccc([N+](=O)[O-])cc3)C2)c1.Cl` (centres unmarked) [Example 42, 3-(3-methoxyphenyl)-1-(4-nitrobenzyl)-piperidine-3-ol hydrochloride] to `COc1cccc(C2(O)CCCN(Cc3ccc(C#N)cc3)C2)c1.Cl` (centres unmarked) [Example 44, 4-[3-hydroxy-3-(3-methoxyphenyl)-piperidine-1-ylmethyl]-benzonitrile hydrochloride], the “Diltiazem binding [10 μM] % inhibition” value rises from 50% to 52.3%.

Going from `COc1ccc(CN2CCCC(O)(c3cccc(C)c3)C2)cc1.Cl` (centres unmarked) [Example 43, 1-(4-methoxybenzyl)-3-(3-methylphenyl)-piperidine-3-ol hydrochloride] to `COc1cccc(C2(O)CCCN(Cc3ccc(C)c([N+](=O)[O-])c3)C2)c1.Cl` (centres unmarked) [Example 50, 3-(3-methoxyphenyl)-1-(4-methyl-3-nitro-benzyl)-piperidine-3-ol hydrochloride], the “Diltiazem binding [10 μM] % inhibition” value rises from 55% to 73.8%.

Going from `COc1cccc(C2(O)CCCN(Cc3cccs3)C2)c1.Cl` (centres unmarked) [Example 46, 3-(3-methoxyphenyl)-1-thiophen-2-ylmethyl-piperidine-3-ol hydrochloride] to `COc1cccc(C2(O)CCCN(Cc3ccc(Cl)c([N+](=O)[O-])c3)C2)c1.Cl` (centres unmarked) [Example 51, 1-(4-chloro-3-nitro-benzyl)-3-(3-methoxyphenyl)-piperidine-3-ol hydrochloride], the “Diltiazem binding [10 μM] % inhibition” value falls from 81.8% to 81.4%.

In the case of `COc1cccc(C2(O)CCCN(CC(c3ccccc3)c3ccccc3)C2)c1.Cl` (centres unmarked) [Example 48, 1-(2,2-diphenyl-ethyl)-3-(3-methoxyphenyl)-piperidine-3-ol hydrochloride], the “Diltiazem binding [10 μM] % inhibition” value is reported as 88.2%.

Same assay, conditions: radioligand; rat cerebral cortex membranes; N=3, mean ±SEM; read-out: KD value for this high affinity binding site

Compound “[^3H]-cis-(+)-diltiazem [reference compound]” has a Kd of 4.1 ± 0.75 nM.
